One data set concerns the target T1, p53 Y220C mutant (Homo sapiens, UniProt P04637, Y220C).
T1 construct: Recombinant His-tagged p53 Y220C (94-312) used for HTRF assays was expressed in E. coli; made in house; host or cells: E. coli
The data set is described as follows: HTRF assay: compounds promoting the binding of p53 Y220C mutant with DNA. Format: biochemical. The settings on record: HTRF/FRET; His-tagged p53 Y220C (94-312) with biotin-labeled DNA; incubated overnight. Here is the method:
Homogeneous time-resolved fluorescence (HTRF) assay was used to measure the reactivation effect of compounds on the p53 Y220C mutant. Recombinant His-tagged p53 Y220C (94-312) used for HTRF assays was expressed in E. coli and purified to 90% purity using a Ni-NTA column. The biotin-labeled DNA used for HTRF assays was synthesized by Pharmaron Inc, with the specific sequence of 5'-[…]-3'.
The binding of recombinant His-tagged p53 Y220C protein with biotin-labeled DNA was measured using fluorescence resonance energy transfer (FRET). For FRET assays, the binding between the p53 mutant and the DNA sequences was measured by detecting the fluorescence of the interaction between Eu-conjugated anti-His antibody (Cisbio, 61HI2KLA) and d2-conjugated streptavidin (Cisbio, 610SADLF) bound to a biotin-labeled DNA molecule. Compounds were prepared as 2 mM stock solutions and serially diluted 1:3 in DMSO to obtain 10 concentrations. Each compound at 200× working concentration was sequentially diluted to 4× working concentration. 4 µL of compound solution was transferred row-by-row to a 384-well assay plate using Echo, with 2 replicates per column. Subsequently, 4 µL of p53 solution was added to the assay plate, followed by 4 µL of biotinylated DNA solution, and then 4 µL of assay solution (His-Eu antibody and streptavidin-d2) was added to each well. The assay plate was incubated overnight in the dark. Fluorescence was read on a BMG microplate reader (BMG LABTECH).
The ratio for each well was calculated (ratio_665 nm/615 nm - ratio_background). The activity (%) was calculated as follows: C = (Ave_Ac−Ave_Ba)/(Ave_Dc−Ave_Bd) [formula] R data = (A−Ave_Ba−C×D)/(D−Ave_Bd) × (Ave_Dc−Ave_Bd) [formula] Activity (%) = R data/Ave_VC × 100. [formula] • A: fluorescence intensity of the sample at 665 nm; • D: fluorescence intensity of the sample at 615 nm; • Ba: fluorescence intensity of the plate background at 665 nm; • Bd: fluorescence intensity of the plate background at 615 nm; • Dc: fluorescence intensity of HIS-Eu background at 615 nm; • Ac: fluorescence intensity of streptavidin-d2 background at 665 nm; • VC: DMSO treatment group.
SC150 was calculated using GraphPad 8.0 to fit the logarithm of activity (%) versus compound concentration to a nonlinear regression (dose response-variable slope). Table 1: Activity of compounds promoting the binding of p53 Y220C mutant with DNA
In general terms: Time-resolved FRET reads energy transfer from a long-lived donor to a nearby acceptor.

In a further data set the test system is NUGC-3 cells. The data set is described as follows: Anti-proliferation effect on NUGC-3 cells (Cell Counting Kit-8). It counts as cell-based. Particulars: Homo sapiens, NUGC-3, 120 h, 5 days of treatment. Here is the method:
Cell line NUGC-3 (JCRB, JCRB0822) was cultured in RPMI 1640 medium (Invitrogen, 11875-085) supplemented with 10% (v/v) fetal bovine serum (BI, 04-002-1A), according to the standard instructions of the American Type Culture Collection. The cell line was authenticated by short tandem repeat profiling.
In the proliferation assay, 1000 NUGC-3 cells were seeded in a 96-well flat clear bottom, TC-treated plate (Corning, 3903) in 200 µL of medium per well, and allowed to recover overnight in culture medium. Compounds were added with increasing concentration, with DMSO treatment serving as a […]. After 5 days of treatment, the plate was equilibrated to room temperature for 30 minutes, and the number of living cells was measured by the addition of the Cell Counting Kit-8 reagent (MCE, HY-K0301). Absorbance was measured on an EnSpire microplate reader (PerkinElmer). The relative viability of each group was presented as the percentage change relative to the […] group and then fit to a four-parameter logit non-linear curve using the program XLFit (IDBS). Table 2: Anti-proliferation activity of compounds on NUGC-3 cells

In another data set the target is T2, CYP1A2 (Homo sapiens, UniProt P05177).
T2 construct: from tissue; host or cells: liver microsomes
T2 sequence (P05177 1-516): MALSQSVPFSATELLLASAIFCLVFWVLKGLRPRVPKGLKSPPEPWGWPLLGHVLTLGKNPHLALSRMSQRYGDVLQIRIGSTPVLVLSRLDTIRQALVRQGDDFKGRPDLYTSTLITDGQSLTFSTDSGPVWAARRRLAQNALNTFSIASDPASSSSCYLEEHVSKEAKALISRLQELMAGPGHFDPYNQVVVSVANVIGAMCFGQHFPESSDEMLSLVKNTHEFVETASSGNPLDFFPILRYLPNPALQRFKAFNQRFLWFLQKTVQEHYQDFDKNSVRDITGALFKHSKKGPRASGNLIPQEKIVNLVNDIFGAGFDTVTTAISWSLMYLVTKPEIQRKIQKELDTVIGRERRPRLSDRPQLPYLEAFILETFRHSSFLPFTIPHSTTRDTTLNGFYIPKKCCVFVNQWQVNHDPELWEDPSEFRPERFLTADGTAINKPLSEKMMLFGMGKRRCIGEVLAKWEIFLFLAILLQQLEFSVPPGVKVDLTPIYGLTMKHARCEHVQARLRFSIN
The data set is described as follows: Inhibitory activity on CYP isoenzymes at a single concentration (liver microsomes). It counts as in vitro ADME. Particulars: pH 7.4, probe phenacetin, Final compound concentration: 10 µM, substrate Phenacetin, read-out: Inhibition rate (%) CYP1A2. How it is done:
(§1) • 1. […] Experimental instrument and reagents: [table] […] The mixture was added with HCl to adjust the pH to 7.4 and brought to a final volume of 1000 mL with water. […] [table] [table] Liver microsomes were thawed in a water bath at 37°C prior to use. […] A 5 mM NADPH working solution was prepared in phosphate-buffered saline. […] 300 µL of the supernatant was aliquoted for further LC-MS/MS analysis. […] Table 3: Inhibitory activity of compounds on CYP isoenzymes*
A general note: Liver microsomes are vesicles of endoplasmic reticulum, rich in cytochrome P450 enzymes.

A further data set has as its target T3, CYP2C19 (Homo sapiens, UniProt P33261).
T3 construct: Liver microsomes were thawed in a water bath at 37°C prior to use; from tissue; host or cells: liver microsomes
Described as above. Particulars: pH 7.4, probe mephenytoin, Final compound concentration: 10 µM, substrate Mephenytoin, read-out: Inhibition rate (%) CYP2C19. It counts as in vitro ADME. Here is the method:
as §1

Another data set addresses T4, CYP2C9 (Homo sapiens, UniProt P11712).
T4 construct: Liver microsomes were thawed in a water bath at 37°C prior to use; from tissue; host or cells: liver microsomes
The description is as above. Format: in vitro ADME. The settings on record: pH 7.4, probe diclofenac, Final compound concentration: 10 µM, substrate Diclofenac, read-out: Inhibition rate (%) CYP2C9. Here is the method:
as §1

A further data set has as its target T5, CYP2D6 (Homo sapiens, UniProt P10635).
T5 construct: Liver microsomes were thawed in a water bath at 37°C prior to use; from tissue; host or cells: liver microsomes
The description is as above. Format: in vitro ADME. Particulars: pH 7.4, probe dextromethorphan, Final compound concentration: 10 µM, substrate Dextromethorphan, read-out: Inhibition rate (%) CYP2D6. Here is the method:
as §1

The test system of data set [1] is CYP3A4/5. The description is as above. Format: in vitro ADME. The settings on record: Final compound concentration: 10 µM, human liver microsomes. Here is the method:
• 1. […] Experimental instrument and reagents:
(§2) The mixture was added with HCl to adjust the pH to 7.4 and brought to a final volume of 1000 mL with water.
Liver microsomes were thawed in a water bath at 37°C prior to use. […] A 5 mM NADPH working solution was prepared in phosphate-buffered saline.
(§3) 300 µL of the supernatant was aliquoted for further LC-MS/MS analysis.
Table 3: Inhibitory activity of compounds on CYP isoenzymes*

The subject of data set [2] is CYP3A4/5. The data set is described as follows: Multi-concentration inhibitory activity curve of CYP3A4/5 enzymes (liver microsomes). Format: in vitro ADME. The settings on record: human liver microsomes. Here is the method:
• 1. Experimental purpose: To determine the concentration inhibitory activity curve of compounds on CYP3A4/5 enzymes. • 2. Experimental instrument and materials:
as §2
Liver microsomes were thawed in a water bath at 37°C prior to use. […] A 5 mM NADPH working solution was prepared in phosphate-buffered saline. […] The above stock solution was diluted with acetonitrile (4-fold dilution, 6 non-zero concentrations).
as §3
The half-maximal inhibitory concentration (IC50) was calculated using Graph Pad Prism. Table 3: Inhibitory activity of compounds on CYP3A4/5 enzymes

A further data set addresses T6, hERG potassium channel (Homo sapiens, UniProt Q12809).
T6 construct: host or cells: HEK293
The data set is described as follows: Manual patch-clamp test of the inhibitory activity on hERG potassium channel. Format: cell-based. The settings on record: HEK293 cell line stably expressing the hERG ion channel, five concentrations 0.37 to 30 µM, n = 2. In general terms: In patch-clamp work, channel activity is measured electrically.

The mark [3] stands for this setting: pH 7.4, probe midazolam, substrate Midazolam, read-out: Inhibition rate (%) CYP3A4/5 (Midazolam).
Setting [4] is: pH 7.4, probe testosterone, substrate Testosterone, read-out: Inhibition rate (%) CYP3A4/5 (Testosterone).
The mark [5] stands for this setting: pH 7.4, probe midazolam, midazolam as substrate.
The mark [6] stands for this setting: pH 7.4, probe testosterone, testosterone as substrate.

Where two headings read alike, the source gives them in different places.

The IC50 is the concentration that gives 50% inhibition. A low value points to inhibition by little substance.

T4 sequence (P11712 whole entry): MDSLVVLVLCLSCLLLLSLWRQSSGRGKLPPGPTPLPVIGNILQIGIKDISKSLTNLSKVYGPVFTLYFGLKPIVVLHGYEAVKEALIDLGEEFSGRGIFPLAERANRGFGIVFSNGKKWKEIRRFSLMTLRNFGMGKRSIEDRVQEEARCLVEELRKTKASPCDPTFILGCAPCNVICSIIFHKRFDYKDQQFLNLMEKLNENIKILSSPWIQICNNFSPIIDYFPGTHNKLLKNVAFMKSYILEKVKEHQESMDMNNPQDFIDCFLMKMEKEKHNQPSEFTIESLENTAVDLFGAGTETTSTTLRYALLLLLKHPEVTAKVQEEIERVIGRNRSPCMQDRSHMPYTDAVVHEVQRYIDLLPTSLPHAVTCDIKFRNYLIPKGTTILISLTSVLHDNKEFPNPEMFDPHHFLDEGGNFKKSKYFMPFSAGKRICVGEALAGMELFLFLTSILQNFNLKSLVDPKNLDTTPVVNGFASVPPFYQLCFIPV
T6 sequence (Q12809 whole entry): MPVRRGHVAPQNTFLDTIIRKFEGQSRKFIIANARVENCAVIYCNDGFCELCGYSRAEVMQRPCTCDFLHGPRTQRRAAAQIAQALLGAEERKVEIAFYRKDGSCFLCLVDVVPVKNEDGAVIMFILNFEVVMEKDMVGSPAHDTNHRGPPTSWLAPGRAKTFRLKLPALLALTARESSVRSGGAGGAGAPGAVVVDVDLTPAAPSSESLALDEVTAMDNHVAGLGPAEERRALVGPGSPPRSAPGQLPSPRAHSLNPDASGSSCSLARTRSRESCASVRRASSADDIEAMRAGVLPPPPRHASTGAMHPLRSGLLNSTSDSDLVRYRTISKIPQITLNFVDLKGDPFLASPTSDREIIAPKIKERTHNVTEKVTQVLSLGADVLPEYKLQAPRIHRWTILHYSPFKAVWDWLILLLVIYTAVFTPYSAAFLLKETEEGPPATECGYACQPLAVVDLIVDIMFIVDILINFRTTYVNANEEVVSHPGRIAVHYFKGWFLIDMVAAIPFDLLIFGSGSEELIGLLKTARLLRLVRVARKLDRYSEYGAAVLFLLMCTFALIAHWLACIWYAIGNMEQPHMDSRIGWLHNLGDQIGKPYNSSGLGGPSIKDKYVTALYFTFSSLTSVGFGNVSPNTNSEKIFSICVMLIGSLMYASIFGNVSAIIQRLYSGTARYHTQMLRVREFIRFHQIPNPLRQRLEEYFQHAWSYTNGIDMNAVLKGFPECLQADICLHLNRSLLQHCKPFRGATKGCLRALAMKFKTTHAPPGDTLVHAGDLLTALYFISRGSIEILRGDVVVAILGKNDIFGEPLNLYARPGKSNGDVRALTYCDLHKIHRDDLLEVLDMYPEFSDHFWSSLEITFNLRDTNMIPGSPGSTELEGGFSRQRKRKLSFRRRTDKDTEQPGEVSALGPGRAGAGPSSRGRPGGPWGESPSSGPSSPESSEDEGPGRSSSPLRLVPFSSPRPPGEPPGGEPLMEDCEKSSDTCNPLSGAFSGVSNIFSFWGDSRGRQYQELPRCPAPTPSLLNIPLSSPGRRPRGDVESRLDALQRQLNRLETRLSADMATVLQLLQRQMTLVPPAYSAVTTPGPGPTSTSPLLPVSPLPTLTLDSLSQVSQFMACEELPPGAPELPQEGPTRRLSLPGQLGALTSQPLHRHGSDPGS
T3 sequence (P33261 whole entry): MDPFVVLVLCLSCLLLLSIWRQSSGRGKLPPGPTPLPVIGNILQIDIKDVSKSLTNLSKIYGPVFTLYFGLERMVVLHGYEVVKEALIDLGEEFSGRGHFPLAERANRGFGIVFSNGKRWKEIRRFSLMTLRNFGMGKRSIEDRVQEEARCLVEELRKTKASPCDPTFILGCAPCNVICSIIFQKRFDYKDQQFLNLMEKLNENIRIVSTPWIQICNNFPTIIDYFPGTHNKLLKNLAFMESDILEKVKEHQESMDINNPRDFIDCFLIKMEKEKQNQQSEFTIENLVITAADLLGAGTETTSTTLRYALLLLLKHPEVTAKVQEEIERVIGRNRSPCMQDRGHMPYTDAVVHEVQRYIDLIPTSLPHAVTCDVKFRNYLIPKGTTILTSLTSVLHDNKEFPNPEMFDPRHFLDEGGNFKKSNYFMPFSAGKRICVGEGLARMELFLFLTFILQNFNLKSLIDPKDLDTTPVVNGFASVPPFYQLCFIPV
T5 sequence (P10635 whole entry): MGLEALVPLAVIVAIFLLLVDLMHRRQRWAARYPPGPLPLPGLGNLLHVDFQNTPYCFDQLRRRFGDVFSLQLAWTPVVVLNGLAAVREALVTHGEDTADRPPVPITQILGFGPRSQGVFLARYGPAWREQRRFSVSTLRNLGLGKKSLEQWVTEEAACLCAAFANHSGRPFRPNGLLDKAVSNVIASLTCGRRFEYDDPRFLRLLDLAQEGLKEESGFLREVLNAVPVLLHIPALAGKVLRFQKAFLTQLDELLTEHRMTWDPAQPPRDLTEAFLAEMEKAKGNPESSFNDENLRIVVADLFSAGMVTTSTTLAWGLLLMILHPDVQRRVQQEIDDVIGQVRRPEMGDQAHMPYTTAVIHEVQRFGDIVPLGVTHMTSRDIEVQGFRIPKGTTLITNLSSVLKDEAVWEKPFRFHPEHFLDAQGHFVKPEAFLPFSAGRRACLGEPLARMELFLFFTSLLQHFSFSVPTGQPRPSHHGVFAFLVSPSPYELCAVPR
Description for hERG potassium channel: This experiment was conducted to evaluate the effect of compounds in five concentrations on hERG channel current, obtaining a dose-effect curve and calculating the IC50.
Cell line and cell culture: HEK293 cell line stably expressing the hERG ion channel (Cat. No.: K1236) was purchased from Invitrogen. The cell line was cultured in medium containing 85% DMEM, 10% dialyzed fetal bovine serum, 0.1 mM non-essential amino acid solution, 100 U/mL penicillin-streptomycin solution, 25 mM HEPES, 5 µg/mL blasticidin, and 400 µg/mL geneticin. When the cell density grew to 40% to 80% of the bottom area of the culture dish, the cells were digested with trypsin and passaged three times per week. Prior to the experiment, the cells were cultured at a density of 5 × 10^5 cells per 3.5 cm culture dish, induced with 1 µg/mL doxycycline for 48 hours, followed by digestion, and seeded onto glass slides for subsequent manual patch-clamp experiments.
Solution preparation: Extracellular fluid (in mM): 132 sodium chloride, 4 potassium chloride, 3 calcium chloride, 0.5 magnesium chloride, 11.1 glucose, and 10 HEPES (pH adjusted to 7.35 with sodium hydroxide). Intracellular fluid (in mM): 10 EGTA, 10 HEPES, 10 potassium chloride, 10 sodium chloride, and 110 potassium fluoride (pH adjusted to 7.2 with potassium hydroxide). Osmolality of the solutions was controlled between 280 and 300 mOsmol/kg. The solutions were filtered and stored at 4°C prior to use.
Preparation of test compound solutions: Following the standard operating procedures, test compounds were dissolved in DMSO and prepared into a stock solution with a final concentration of 10 mM. The stock solution was serially diluted 1:3 in DMSO as the solvent to obtain three intermediate solutions with concentrations of 3.33, 1.11, and 0.37 mM. Prior to the experiment, the test compound intermediate solutions were further diluted 1:1000 with extracellular fluid to prepare a series of working solutions. […]

The compound `COc1nc(C(=O)O)ccc1NCC#Cc1cc2c(N[C@@H]3CCN(C)C[C@@H]3F)cccn2c1CC(F)(F)F` [Cpd-2, 5-((3-(8-(((3S,4R)-3-Fluoro-1-methylpiperidin-4-yl)amino)-3-(2,2,2-trifluoroethyl)indolizin-2-yl)prop-2-yn-1-yl)amino)-6-methoxypicolinic acid] showed an SC150 at p53 Y220C mutant of 0.5 nM. Also, the IC50 is 120 nM in the data set on NUGC-3 cells and above 30000 nM at hERG potassium channel. The inhibition at 10 min, 10 µM on CYP1A2 is 1.2%; on CYP2C19 it was 1.9%; on CYP2C9 it was below 0%; on CYP2D6, 0.73%; in the data set on CYP3A4/5 [1] (setting [3]), below 0%; in the data set with CYP3A4/5 [1] (setting [4]), 1.7%. Besides, the IC50 at 10 min with CYP3A4/5 [2] (setting [5]) and with CYP3A4/5 [2] (setting [6]) was above 50000 nM each time.

In turn, `COc1cc(S(C)(=O)=O)ccc1NCC#Cc1nc2c(N[C@@H]3CCN(C)C[C@@H]3F)cccn2c1CC(F)(F)F` [Cpd-B] came in with an SC150 on p53 Y220C mutant of 15 nM. In the data set on NUGC-3 cells, this compound displayed an IC50 of 360 nM. Moreover, the inhibition at 10 min, 10 µM is 0.56% on CYP1A2; 31% at CYP2C19; 21% on CYP2C9; 3.6% on CYP2D6; 61% in the data set on CYP3A4/5 [1] (setting [3]); 75% in the data set on CYP3A4/5 [1] (setting [4]).

Take `CNC(=O)c1ccc(NCC#Cc2cc3c(N[C@@H]4CCN(C)C[C@@H]4F)cccc3n2CC(F)(F)F)c(OC)c1` [Cpd-A]: the SC150 at p53 Y220C mutant stood at 10 nM. Moreover, the IC50 with NUGC-3 cells was 780 nM; on hERG potassium channel it was 19000 nM. Also, the inhibition at 10 min, 10 µM at CYP1A2 worked out at 12%; on CYP2C19, 42%; at CYP2C9 it was 38%; on CYP2D6 it was 5.5%; with CYP3A4/5 [1] (setting [3]) it was 83%. Besides, the IC50 at 10 min was found to be 2300 nM in the data set with CYP3A4/5 [2] (setting [5]) and 890 nM in the data set on CYP3A4/5 [2] (setting [6]).

Take `[2H]C([2H])([2H])Oc1nc(C(=O)O)ccc1NCC#Cc1cc2c(N[C@@H]3CCN(C)C[C@@H]3F)cccn2c1CC(F)(F)F` [Cpd-1, 5-((3-(8-(((3S,4R)-3-Fluoro-1-methylpiperidin-4-yl)amino)-3-(2,2,2-trifluoroethyl)indolizin-2-yl)prop-2-yn-1-yl)amino)-6-(methoxy-d3)picolinic acid]: the SC150 at p53 Y220C mutant turned out to be 0.4 nM. The figures for the IC50 in the data set on NUGC-3 cells and against hERG potassium channel were 100 nM and above 30000 nM, respectively. In addition, the inhibition at 10 min, 10 µM at CYP1A2 was 6.3%; at CYP2C19 it was 5.5%; on CYP2C9 it was below 0%; at CYP2D6, 2.6%; in the data set with CYP3A4/5 [1] (setting [3]), 3.4%; in the data set with CYP3A4/5 [1] (setting [4]), below 0%. Also, the IC50 at 10 min with CYP3A4/5 [2] (setting [5]) and in the data set with CYP3A4/5 [2] (setting [6]) was above 50000 nM throughout.

For `CNC(=O)c1ccc(NCC#Cc2cc3c(N[C@@H]4CCN(C)C[C@@H]4F)cccn3c2CC(F)(F)F)c(OC)c1` [Cpd-C, 4-((3-(8-(((3S,4R)-3-Fluoro-1-methylpiperidin-4-yl)amino)-3-(2,2,2-trifluoroethyl)indolizin-2-yl)prop-2-yn-1-yl)amino)-3-methoxy-N-methylbenzamide], the SC150 on p53 Y220C mutant was determined as 4.6 nM. In the data set with NUGC-3 cells, the IC50 was found to be 230 nM. Also, the inhibition at 10 min, 10 µM on CYP1A2 was determined as 18%; on CYP2C19, 67%; on CYP2C9, 43%; at CYP2D6, 9.5%; in the data set on CYP3A4/5 [1] (setting [3]) it was 79%. For the same compound, the IC50 at 10 min in the data set with CYP3A4/5 [2] (setting [5]) came to 3800 nM.

Source of the values: patent publication EP4793277A1, “CARBOXYLIC ACID COMPOUND AND PREPARATION METHOD THEREFOR AND USE THEREOF” (Nutshell Therapeutics (Shanghai) Co., Ltd., priority 2023, dated 2025).
